The record followed here is patent US20100305140A1, “BENZIMIDAZOLE DERIVATIVES WHICH ARE TO BE USED AS ANTAGONIST FOR THE CB1-RECEPTOR” (AstraZeneca AB, priority 2006, published 2010).

Experiment [1] deals with T1, Human CB1 receptor (hCB1) (Homo sapiens, UniProt P21554).
T1 construct: purchased Receptor Biology
As to the kind of experiment: hCB1 GTPγS binding. As to conditions: human CB1 receptor membranes, GTPγ35S; for EC50: unit inferred; for Emax: maximal stimulated binding determined with 10 μM Win 55,212-2. It is filed as biochemical. The protocol:
hCB1 and hCB2 GTPγS Binding
Human CB1 receptor from Receptor Biology (hCB1) or human CB2 receptor membranes (BioSignal) are thawed at 37° C., passed 3 times through a 25-gauge blunt-end needle and diluted in the GTPγS binding buffer (50 mM Hepes, 20 mM NaOH, 100 mM NaCl, 1 mM EDTA, 5 mM MgCl2, pH 7.4, 0.1% BSA). The EC50 and Emax of the compounds of the invention are evaluated from 10-point dose-response curves done in 300 μl with the appropriate amount of membrane protein and 100000-130000 dpm of GTPg^35S per well (0.11-0.14 nM). The basal and maximal stimulated binding is determined in absence and presence of 1 μM (hCB2) or 10 μM (hCB1) Win 55,212-2 respectively. The membranes are pre-incubated for 5 minutes with 56.25 μM (hCB2) or 112.5 μM (hCB1) GDP prior to distribution in plates (15 μM (hCB2) or 30 μM (hCB1) GDP final). The plates are vortexed and incubated for 60 minutes at room temperature, filtered on Unifilters GF/B (presoaked in water) with the Tomtec or Packard harvester using 3 ml of wash buffer (50 mM Tris, 5 mM MgCl2, 50 mM NaCl, pH 7.0). The filters are dried for 1 hour at 55° C. The radioactivity (cpm) is counted in a TopCount (Packard) after adding 65 μl/well of MS-20 scintillation liquid. Antagonist reversal studies are done in the same way except that (a) an agonist dose-response curve is done in the presence of a constant concentration of antagonist, or (b) an antagonist dose-response curve is done in the presence of a constant concentration of agonist.
(Binding of GTPγS marks nucleotide exchange on a G protein.)

Experiment [2] addresses T1, Human CB1 receptor (hCB1). As to the kind of experiment: hCB1 receptor binding (3H-CP55,940 displacement). Conditions: human CB1 receptor membranes. The protocol: hCB1 and hCB2 Receptor Binding
Human CB1 receptor from Receptor Biology (hCB1) or human CB2 receptor from BioSignal (hCB2) membranes are thawed at 37° C., passed 3 times through a 25-gauge blunt-end needle, diluted in the cannabinoid binding buffer (50 mM Tris, 2.5 mM EDTA, 5 mM MgCl2, and 0.5 mg/mL BSA fatty acid free, pH 7.4) and aliquots containing the appropriate amount of protein are distributed into 96-well plates. The IC50 of the compounds of the invention at hCB1 and hCB2 are evaluated from 10-point dose-response curves done with ^3H-CP55,940 at 20000 to 25000 dpm per well (0.17-0.21 nM) in a final volume of 300 μl. The total and non-specific binding are determined in the absence and presence of 0.2 μM of HU210 respectively. The plates are vortexed and incubated for 60 minutes at room temperature, filtered through Unifilters GF/B (presoaked in 0.1% polyethyleneimine) with the Tomtec or Packard harvester using 3 mL of wash buffer (50 mM Tris, 5 mM MgCl2, 0.5 mg BSA pH 7.0). The filters are dried for 1 hour at 55° C. The radioactivity (cpm) is counted in a TopCount (Packard) after adding 65 μl/well of MS-20 scintillation liquid.
Based on the above assays, the dissociation constant (Ki) for a particular compound of the invention towards a particular receptor is determined using the following equation: […]

T1 sequence (P21554 whole entry): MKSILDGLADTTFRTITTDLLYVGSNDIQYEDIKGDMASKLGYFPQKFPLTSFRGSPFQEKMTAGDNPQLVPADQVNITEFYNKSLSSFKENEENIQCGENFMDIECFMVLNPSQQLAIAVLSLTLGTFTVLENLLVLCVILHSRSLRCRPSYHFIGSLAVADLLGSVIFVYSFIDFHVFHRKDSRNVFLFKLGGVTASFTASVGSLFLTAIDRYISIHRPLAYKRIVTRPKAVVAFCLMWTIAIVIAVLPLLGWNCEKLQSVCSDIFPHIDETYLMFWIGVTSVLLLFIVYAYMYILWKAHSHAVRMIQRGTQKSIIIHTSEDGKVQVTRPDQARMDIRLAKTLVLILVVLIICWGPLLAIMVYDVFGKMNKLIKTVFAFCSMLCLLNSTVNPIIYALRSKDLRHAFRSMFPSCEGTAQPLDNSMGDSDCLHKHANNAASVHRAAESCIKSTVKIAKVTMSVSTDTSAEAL

Take `Cc1cc(NC(=O)C2CCN(C(=O)c3ccc4c(c3)nc(C(C)(C)C)n4CC3CCC(F)(F)CC3)CC2)no1`: in experiment [1], the midpoint of the response, the EC50, lay at 1770 nM and the Emax came out at 132%.
On to `CC(C)(C)c1nc2cc(C(=O)N3CCC(C(=O)NC4CC4)CC3)ccc2n1CC1CCC(F)(F)CC1`, for which the Ki in experiment [2] turned out to be 19.2 nM. In addition, in experiment [1], the EC50 was determined as 16.7 nM and the Emax came to 115%.
As to `CC(C)(C)c1nc2cc(C(=O)N3CCC(C(=O)NC4CC4)CC3)ccc2n1CC1CCCCC1`, affinity in experiment [2] was put at a Ki of 23.8 nM. Also, in experiment [1], the EC50 was 37.7 nM and the maximal effect (Emax) was 134%.

Usually EC50 stands for the concentration at which the effect is half-maximal. Higher therefore signals weaker potency. A word on the Emax: it is the greatest response seen or fitted, relative to the assay's reference. A word on the Ki: it is a measure of affinity in units of concentration, obtained from inhibition or displacement.
